Laboratory results reported in PMC8443647, “Hybrid derivative of cathelicidin and human beta defensin-2 against Gram-positive bacteria: A novel approach for the treatment of bacterial keratitis” (Scientific Reports, 2021).
“And” between values parts separate entries of the source, which are not always exact repeats. Equal values may be shown once. Read-outs that look alike come from different tables or passages of the source. Bridge positions count the residues as written; N and C are the ends. Ends that are not written are not given here. Peptide text beside a SMILES is read from it.

Experiments:
MRSA-OS = test: microbe, parasite or virus in culture; assay type: cell-based, Staphylococcus aureus; conditions: 24 h
From the text: (§1) A range of Gram-positive and Gram-negative laboratory- and clinical-strain bacteria were used for the experiments. These included laboratory-strain methicillin-sensitive S. aureus (MSSA; including SH1000 and ATCC SA29213), laboratory-strain MRSA (ATCC MRSA43300), clinical-strain MRSA (MRSA-OS; an IK isolate), laboratory-strain methicillin-sensitive Staphylococcus epidermidis (MSSE; ATCC SE12228), laboratory invasive-strain P. aeruginosa (PAO1-L), and clinical cytotoxic-strain P. aeruginosa (PA-OS; an IK isolate).
(§2) In vitro antimicrobial efficacy of the antibiotics and designed HDPs was determined using an established MIC assay with broth microdilution method approved by the Clinical and Laboratory Standards Institute (CLSI)[64]. Briefly, the microorganisms were cultured on Tryptone Soya Agar (TSA) and incubated overnight for 18–21 h at 37 °C. Bacterial inoculums were subsequently prepared using the direct colony suspension method. Three to five bacterial colonies were obtained from the agar plate and inoculated into an Eppendorf tube containing 1 ml of cation-adjusted Muller-Hinton broth (caMHB), consisting of 20–25 mg/L calcium ions (Ca^2+) and 10–12.5 mg/L magnesium ions (Mg^2+). The bacterial suspension was adjusted to achieve a turbidity equivalent to 0.1 OD600 or 0.5 MacFarland, containing ~ 1.5 × 10^8 colony-forming unit (CFU)/ml, which was then further diluted in 1:150 in caMHB to reach a final bacterial concentration of ~ 1 × 10^6 colony forming units (CFU)/ml. Each treatment (peptide or antibiotic) was prepared in 1:2 serial dilution in 96-well polypropylene microplates (with a final treatment volume of 50 μl per well), followed by the addition of 50 μl of 1 × 10^6 CFU/ml bacteria into each well (with a final bacterial concentration of 5 × 10^5 CFU/ml).

S. aureus SH1000 = test: microbe, parasite or virus in culture; assay type: cell-based, Staphylococcus aureus
From the text: as §1, §2

P. aeruginosa PAO1-L = test: microbe, parasite or virus in culture; assay type: cell-based
From the text: as §1, §2

[1] = tested on: Gram-positive or Gram-negative bacteria; test: MIC assay, all tested organisms summarised; assay type: cell-based; conditions: summary over the organisms tested, without salt
From the text: as §1
In vitro antimicrobial efficacy of the antibiotics and designed HDPs was determined using an established MIC assay with broth microdilution method approved by the Clinical and Laboratory Standards Institute (CLSI)[64]. Briefly, the microorganisms were cultured on Tryptone Soya Agar (TSA) and incubated overnight for 18–21 h at 37 °C. Bacterial inoculums were subsequently prepared using the direct colony suspension method. Three to five bacterial colonies were obtained from the agar plate and inoculated into an Eppendorf tube containing 1 ml of cation-adjusted Muller-Hinton broth (caMHB), consisting of 20–25 mg/L calcium ions (Ca^2+) and 10–12.5 mg/L magnesium ions (Mg^2+). […]

[2] = tested on: human corneal epithelial cells (HCE-2); test: cells; assay type: cell-based; conditions: 3 h
Description: (§3) Cell viability and cytotoxicity of antibiotics and peptides were determined against human corneal epithelial cells (HCE-2, CRL-11135, ATCC, Manassas, Virginia, USA) using cell-counting-kit-8 (CCK-8) assay (Sigma Aldrich, Merck Life Science UK Limited, Dorset, UK) and lactate dehydrogenase (LDH) assay (ThermoFisher Scientific, UK), respectively, as per manufacturer’s guidelines. HCE-2 cells were cultured and seeded into a 96-well plate at a density of 7.5 × 10^3 cells/well and allowed to attach overnight and grew to 80–90% confluency in keratinocyte serum free medium (KSFM) supplemented with human recombinant epidermal growth factor, bovine pituitary extract, hydrocortisone, and insulin. Once the confluency reached 80–90%, the cells were incubated with treatment for 3 h before OD450 measurement was taken using BMG Clariostar microplate reader (BMG Labtech Ltd., Aylesbury, UK). Appropriate controls were used, including 0.1% Triton X-100 as positive control and KSFM as negative control. Cell viability was calculated using the following formula: [([…]) × 100; I = intensity] and cytotoxicity was calculated using the following formula: [((Itreatment – INC)/(IPC – INC)) × 100].

in vitro = assay type: cell-based, human; conditions: human
Description: as §3

[3] = tested on: human corneal epithelial cells (HCE-2); test: in vitro; assay type: cell-based
Description: as §3

P. aeruginosa PA-OS = test: microbe, parasite or virus in culture; assay type: cell-based; conditions: Pseudomonas aeruginosa, 24 h, caMHB, read-out: MIC
From the text: as §1, §2

Hemolytic assay = assay type: cell-based; conditions: human, Hmax (%): percentage of hemolysis at 200 µg/ml
Description: (§4) Ethical approval was obtained from the Local Research Ethics Committee of University of Nottingham prior to the experiment (Ref: 176-1812). The experiment was conducted in accordance with the relevant guidelines and regulations. Hemolytic assay was performed according to the previously established protocol. Briefly, 5 ml of fresh human blood was collected from healthy participants with written informed consent, in an EDTA tube and centrifuged for 10 min at 1300g at 10 °C for separation of plasma. The remaining erythrocytes were rinsed and centrifuged further three times in Ca^2+/Mg^2+ free Dulbecco’s phosphate-buffered saline (DPBS). Subsequently, erythrocytes were diluted to 8% v/v in DPBS and incubated with 100 μl of treatment, positive control (1% Triton X-100) and negative control (DPBS), all in 1:1 ratio, for 1 h (final erythrocytes concentration = 4% v/v). After 1 h of incubation, the plate was centrifuged at 500×g for 5 min and 100 μl of supernatant of each well was transferred into a 96-well plate for measurement at OD540. Hemolysis (%) was calculated as [(Itreatment – INC)/(IPC – INC)] × 100.

fresh human erythrocytes = test: Hemolytic assay; assay type: cell-based; conditions: 1 h
Description: as §4

S. aureus ATCC 29213 = test: Murine S. aureus keratitis model (in vivo efficacy); parameters: species or system Staphylococcus aureus; C57BL/6J mice; conditions: levofloxacin 0.5%
Description: Based on the in vivo safety data, the highest tolerable concentration of CaD23, 500 μg/ml (0.05%), was used in the subsequent S. aureus keratitis murine model. Levofloxacin 0.5%, a commonly used antibiotic for BK in clinical setting, and PBS were used as the positive and negative controls, respectively.
All mice were randomly allocated to each treatment group (n = 5 mice/group). Slit-lamp examination was performed before the start of experiment to confirm the health of corneas. […] 10 μl of ~ 1 × 10^8 CFU/ml of ATCC SA29213 was applied topically onto the cornea and the lid was held shut for 1 min. […] The eyes were monitored daily using slit-lamp biomicroscopy and photography. Ocular clinical scoring was adapted from a previous method described by Clemens et al.[52] with minor modifications: (a) 0: Clear cornea or minimal opacity, partially covering the pupil; (b) + 1: Mild opacity, partially/fully covering the pupil; (c) + 2: Dense opacity, partially covering the pupil; (d) + 3: Dense opacity fully covering the pupil; and (e) + 4: Corneal perforation or phthisis.
At the end of day 3, all animals were sacrificed, and the infected eyes were enucleated. The whole corneas were subsequently dissected and homogenized in 1 ml of sterile PBS using sterile glass micro-beads. The homogenised infected corneal tissue suspension was serially diluted in 1:10 and plated on TSA plates in triplicates for enumeration of CFU after 24 h incubation at 37 °C.

[4] = 0 mM NaCl, caMHB, 24 h, listed as LL-37
[5] = 0 mM NaCl, caMHB, 24 h, read-out: MIC

Molecule: CC[C@H](C)[C@H](NC(=O)[C@H](CCCCN)NC(=O)[C@H](CCC(=O)O)NC(=O)[C@H](CCCCN)NC(=O)[C@H](CO)NC(=O)[C@H](CCCCN)NC(=O)[C@H](CCCNC(=N)N)NC(=O)[C@H](Cc1ccccc1)NC(=O)[C@H](Cc1ccccc1)NC(=O)[C@H](CC(=O)O)NC(=O)CNC(=O)[C@H](CC(C)C)NC(=O)[C@@H](N)CC(C)C)C(=O)NCC(=O)N[C@@H](CCCCN)C(=O)N[C@@H](CCC(=O)O)C(=O)N[C@@H](Cc1ccccc1)C(=O)N[C@@H](CCCCN)C(=O)N[C@@H](CCCNC(=N)N)C(=O)N[C@H](C(=O)N[C@H](C(=O)N[C@@H](CCC(N)=O)C(=O)N[C@@H](CCCNC(=N)N)C(=O)N[C@H](C(=O)N[C@@H](CCCCN)C(=O)N[C@@H](CC(=O)O)C(=O)N[C@@H](Cc1ccccc1)C(=O)N[C@@H](CC(C)C)C(=O)N[C@@H](CCCNC(=N)N)C(=O)N[C@@H](CC(N)=O)C(=O)N[C@@H](CC(C)C)C(=O)N[C@H](C(=O)N1CCC[C@H]1C(=O)N[C@@H](CCCNC(=N)N)C(=O)N[C@H](C(=O)N[C@@H](CCC(=O)O)C(=O)N[C@@H](CO)C(=O)O)[C@@H](C)O)C(C)C)[C@@H](C)CC)C(C)C)[C@@H](C)CC [LL37, LLGDFFRKSKEKIGKEFKRIVQRIKDFLRNLVPRTES, reference compound]
- MIC (MRSA-OS; 0 mM NaCl, caMHB): 25 µg/mL
- MIC (MRSA-OS; 0 mM NaCl, caMHB, listed as LL-37): 25 µg/mL
- MIC (MRSA-OS; 0 mM NaCl, caMHB, read-out: MIC): 5.6 µM
- MIC (S. aureus SH1000; 0 mM NaCl, caMHB, 24 h): 25 µg/mL
- MIC (S. aureus SH1000; [4]): 25.0 µg/mL
- MIC (S. aureus SH1000; [5]): 5.6 µM
- MIC (P. aeruginosa PAO1-L; 0 mM NaCl, caMHB, 24 h): 50 µg/mL
- MIC (P. aeruginosa PAO1-L; [4]): 50 µg/mL
- MIC (P. aeruginosa PAO1-L; [5]): 11.1 µM
- MIC [1]: 25 to 50 µg/mL

Molecule: GIGDPVTCLKSGAICHPVFCPRRYKQIGTCGLPGTKCCKKP (disulfide 8-37, 15-30, 20-38 (inferred)) [HBD2, GIGDPVTCLKSGAICHPVFCPRRYKQIGTCGLPGTKCCKKP]
- MIC [1]: 100 µg/mL

Molecule: CC[C@H](C)[C@H](NC(=O)[C@H](CCCNC(=N)N)NC(=O)[C@H](CCC(N)=O)NC(=O)[C@@H](NC(=O)[C@@H](NC(=O)[C@H](CCCNC(=N)N)NC(=O)[C@@H](N)CCCCN)[C@@H](C)CC)C(C)C)C(=O)N[C@@H](CCCCN)C(=O)N[C@@H](CC(=O)O)C(=O)N[C@@H](Cc1ccccc1)C(=O)N[C@@H](CC(C)C)C(=O)N[C@@H](CCCNC(=N)N)C(=O)N[C@@H](CCCCN)C(=O)N[C@@H](CS)C(=O)N[C@@H](CS)C(=O)N[C@@H](CCCCN)C(=O)N[C@@H](CCCCN)C(=O)N1CCC[C@H]1C(=O)O [CaD2, KRIVQRIKDF LRKCCKKP] (H-KRIVQRIKDFLRKCCKKP-OH; N-terminus and C-terminus assumed)
- MIC (MRSA-OS; -OS): > 200 µg/mL
- MIC (S. aureus SH1000; SH1000, 24 h): > 200 µg/mL
- MIC (P. aeruginosa PAO1-L; PAO1, 24 h): > 200 µg/mL
- IC50 (concentration causing 50% inhibition of cell viability) [2]: > 200 µg/mL
- CC50 at 3 h (in vitro): > 200 µg/mL
- Lmax (%): percentage of cytotoxicity at 200 µg/ml [3]: 2.9 (2.2) %

Molecule: C[C@H]1COc2c(N3CCN(C)CC3)c(F)cc3c(=O)c(C(=O)O)cn1c23 [Levofloxacin, levofloxacin, reference compound]
- MIC (MRSA-OS; 150 mM NaCl, caMHB): 0.31 µg/mL
- MIC (MRSA-OS; 150 mM NaCl, caMHB, read-out: MIC): 0.86 µM
- MIC (MRSA-OS; Staphylococcus aureus, MRSA, 0 mM NaCl, caMHB, read-out: MIC): 0.31 µg/mL and 0.86 µM
- MIC (S. aureus SH1000; Staphylococcus aureus, SH1000, 24 h, 0 mM NaCl, caMHB, 24 h, read-out: MIC): 0.31 µg/mL and 0.86 µM
- MIC (S. aureus SH1000; Staphylococcus aureus, SH1000, 24 h, 150 mM NaCl, caMHB, 24 h, read-out: MIC): 0.31 µg/mL and 0.86 µM
- MIC (P. aeruginosa PA-OS; 0 mM NaCl): 0.31 µg/mL and 0.86 µM
- MIC (P. aeruginosa PA-OS; 150 mM NaCl): 0.31 µg/mL and 0.86 µM
- MIC (P. aeruginosa PAO1-L; Pseudomonas aeruginosa, PAO1, 24 h, 0 mM NaCl, caMHB, 24 h, read-out: MIC): 0.31 µg/mL and 0.86 µM
- MIC (P. aeruginosa PAO1-L; Pseudomonas aeruginosa, PAO1, 24 h, 150 mM NaCl, caMHB, 24 h, read-out: MIC): 0.31 µg/mL and 0.86 µM
- Imax (%): percentage of inhibition of cell viability at 200 µg/ml ([2]; HCE-2, CCK-8 assay, 200 µg/ml, mean (SD)): 108.0 (2.8) %
- IC50 ([2]; Homo sapiens, Corneal epithelial cell, HCE-2, CCK-8 assay, mean (SD), read-out: IC50 (concentration causing 50% inhibition of cell viability)): > 200 µg/mL
- CC50 at 3 h (in vitro): > 200 µg/mL
- Lmax (%): percentage of cytotoxicity at 200 µg/ml ([3]; human, 3 h, 200 µg/ml): 1.2 (0.7) %
- hemolysis at 1 h, 200 µg/ml (Hemolytic assay): 0%
- HC50 (concentration causing 50% hemolysis) (fresh human erythrocytes): > 200 µg/mL
- S. aureus bacterial viability (S. aureus ATCC 29213; CaD23 0.05%, after 3 days of treatment, median ± IQR): 2.4 ± 2.2 log10 CFU/ml
- Reduction of S. aureus bacterial viability compared to PBS group (S. aureus ATCC 29213; CaD23 0.05%, topical 4 times a day for 3 days, median): 98%
- Ocular clinical scoring (S. aureus ATCC 29213; day 3 post-treatment, CaD23 0.05%, scale 0 to +4): 1.0 ± 0.71
- Median reduction in the bacterial bioburden compared to the PBS group (S. aureus ATCC 29213): 1.8 logCFU
